Source: publication PMC7180718, “Synthesis, Docking Studies and Biological Activity of New Benzimidazole- Triazolothiadiazine Derivatives as Aromatase Inhibitor” (Molecules, 2020)
Read-outs that look alike come from different tables or passages of the source. One block for each compound: values may come before it.

Assays:
[1] = system: MCF-7 breast cancer cell line; experiment: MTT cytotoxicity assay, MCF-7; type: cell-based, human
Description: (§1) The newly synthesized compounds were evaluated for their in vitro anticancer potential against MCF-7 breast cancer cell lines by MTT assay using cisplatin as a reference standard. The 50% inhibitory concentration (IC50) values were determined for these compounds. In addition, the cytotoxic activities of compounds 5c, 5e, 5k, and 5m were assessed against healthy NIH3T3 [25] cells, in order to express the selectivity toward carcinogenic cells. The IC50 values of test compounds were determined as the mean IC50 of 4 independent experiments.
(§2) The anticancer activity of compounds 5a–5p were screened according to the MTT assays. The MTT assays were performed as previously described. Cisplatin was used as the reference drug for the MCF7 cell line in the MTT assays.

[2] = system: NIH3T3 cells; experiment: MTT cytotoxicity assay, healthy NIH3T3 cells; type: cell-based
Description: as §1, §2

[3] = target: T1, recombinant human aromatase (Homo sapiens, UniProt P11511); experiment: Fluorometric aromatase (CYP19A) inhibitor screening kit (Bio Vision); type: biochemical; settings: read-out: IC50 Aromatase Inhibition
T1 construct: purchased Bio Vision
T1 sequence (P11511 1-503): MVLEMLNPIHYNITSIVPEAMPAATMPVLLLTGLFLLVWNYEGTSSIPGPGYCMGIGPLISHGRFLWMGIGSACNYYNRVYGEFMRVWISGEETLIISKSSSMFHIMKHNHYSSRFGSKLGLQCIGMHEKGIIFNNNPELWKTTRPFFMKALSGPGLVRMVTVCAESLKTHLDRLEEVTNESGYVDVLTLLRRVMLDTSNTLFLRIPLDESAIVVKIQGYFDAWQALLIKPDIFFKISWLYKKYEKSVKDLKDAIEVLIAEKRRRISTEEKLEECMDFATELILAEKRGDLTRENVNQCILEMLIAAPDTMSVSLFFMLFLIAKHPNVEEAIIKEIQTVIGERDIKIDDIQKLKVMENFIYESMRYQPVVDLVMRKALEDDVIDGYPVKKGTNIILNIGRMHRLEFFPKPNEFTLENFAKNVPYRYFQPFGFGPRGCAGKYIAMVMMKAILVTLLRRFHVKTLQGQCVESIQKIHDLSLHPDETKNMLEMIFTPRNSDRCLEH

[4] = fluorometric kit, letrozole as reference

Compound: N.N.[Cl][Pt][Cl] [Cisplatin, reference compound]
IC50 ([1]; n = 4): 0.02 ± 0.009 µM | IC50 ([2]; n = 4): ≥ 1000 µM

Compound: c1ccc(C2=Nn3c(nnc3-c3ccc(-c4nc5ccccc5[nH]4)cc3)SC2)cc1 [Compound 5a, 3-(4-(1H-benzo[d]imidazol-2-yl)phenyl)-6-phenyl-7H-[1,2,4]triazole[3,4-b][1,3,4] thiadiazine]
IC50 ([1]; n = 4): 0.142 ± 0.007 µM

IC50 [3, 4]: 1.72 ± 0.042 µM
Compound: Fc1ccc(C2=Nn3c(nnc3-c3ccc(-c4nc5ccccc5[nH]4)cc3)SC2)cc1 [Compound 5c, 3-(4-(1H-benzo[d]imidazol-2-yl)phenyl)-6-(4-fluorophenyl)-7H-[1,2,4]triazole[3,4-b][1,3,4] thiadiazine]
IC50 ([1]; n = 4): 0.119 ± 0.005 µM | IC50 ([2]; n = 4): 81.8 ± 2.4 µM

Compound: Cc1ccc(C2=Nn3c(nnc3-c3ccc(-c4nc5ccccc5[nH]4)cc3)SC2)cc1 [Compound 5d, 3-(4-(1H-benzo[d]imidazol-2-yl)phenyl)-6-(4-methylphenyl)-7H-[1,2,4]triazole[3,4-b][1,3,4] thiadiazine]
IC50 ([1]; n = 4): 0.194 ± 0.006 µM

IC50 [3]: 0.032 ± 0.001 µM | melting point: 259.3 to 263.1 °C
Compound: N#Cc1ccc(C2=Nn3c(nnc3-c3ccc(-c4nc5ccccc5[nH]4)cc3)SC2)cc1 [Compound 5e, 3-(4-(1H-benzo[d]imidazol-2-yl)phenyl)-6-(4-cyanophenyl)-7H-[1,2,4]triazole[3,4-b][1,3,4] thiadiazine]
IC50 ([1]; Homo sapiens, MCF7, n = 4): 0.016 ± 0.001 µM | IC50 ([2]; Mus musculus, NIH3T3, n = 4): ≥ 1000 µM

Compound: Brc1ccc(C2=Nn3c(nnc3-c3ccc(-c4nc5ccccc5[nH]4)cc3)SC2)cc1 [Compound 5f, 3-(4-(1H-benzo[d]imidazol-2-yl)phenyl)-6-(4-bromophenyl)-7H-[1,2,4]triazole[3,4-b][1,3,4] thiadiazine]
IC50 ([1]; n = 4): 0.318 ± 0.019 µM

Compound: Fc1ccc(C2=Nn3c(nnc3-c3ccc(-c4nc5ccccc5[nH]4)cc3)SC2)c(F)c1 [Compound 5g, 3-(4-(1H-benzo[d]imidazol-2-yl)phenyl)-6-(2,4-difluorohenyl)-7H-[1,2,4]triazole [3,4-b][1,3,4] thiadiazine]
IC50 ([1]; n = 4): 0.245 ± 0.004 µM

Compound: Clc1ccc(C2=Nn3c(nnc3-c3ccc(-c4nc5ccccc5[nH]4)cc3)SC2)c(Cl)c1 [Compound 5h, 3-(4-(1H-benzo[d]imidazol-2-yl)phenyl)-6-(2,4-dichlorophenyl)-7H-[1,2,4]triazole[3,4-b] [1,3,4] thiadiazine]
IC50 ([1]; n = 4): 0.342 ± 0.017 µM

Compound: Clc1ccc2[nH]c(-c3ccc(-c4nnc5n4N=C(c4ccccc4)CS5)cc3)nc2c1 [Compound 5i, 3-(4-(5-chloro-1H-benzo[d]imidazol-2-yl)phenyl)-6-phenyl-7H-[1,2,4]triazole[3,4-b][1,3,4] thiadiazine]
IC50 ([1]; n = 4): 0.205 ± 0.005 µM

Compound: Clc1ccc(C2=Nn3c(nnc3-c3ccc(-c4nc5cc(Cl)ccc5[nH]4)cc3)SC2)cc1 [Compound 5j, 3-(4-(5-chloro-1H-benzo[d]imidazol-2-yl)phenyl)-6-(4-chlorophenyl)-7H-[1,2,4]triazole [3,4-b][1,3,4] thiadiazine]
IC50 ([1]; n = 4): 0.258 ± 0.011 µM

IC50 [3, 4]: 2.28 ± 0.106 µM
Compound: Fc1ccc(C2=Nn3c(nnc3-c3ccc(-c4nc5cc(Cl)ccc5[nH]4)cc3)SC2)cc1 [Compound 5k, 3-(4-(5-chloro-1H-benzo[d]imidazol-2-yl)phenyl)-6-(4-fluorophenyl)-7H-[1,2,4]triazole [3,4-b][1,3,4] thiadiazine]
IC50 ([1]; n = 4): 0.11 ± 0.005 µM | IC50 ([2]; n = 4): 77.6 ± 2.1 µM

Compound: Cc1ccc(C2=Nn3c(nnc3-c3ccc(-c4nc5cc(Cl)ccc5[nH]4)cc3)SC2)cc1 [Compound 5l, 3-(4-(5-chloro-1H-benzo[d]imidazol-2-yl)phenyl)-6-(4-methylphenyl)-7H-[1,2,4]triazole [3,4-b][1,3,4] thiadiazine]
IC50 ([1]; n = 4): 0.352 ± 0.019 µM

IC50 [3, 4]: 1.56 ± 0.064 µM
Compound: N#Cc1ccc(C2=Nn3c(nnc3-c3ccc(-c4nc5cc(Cl)ccc5[nH]4)cc3)SC2)cc1 [Compound 5m, 3-(4-(5-chloro-1H-benzo[d]imidazol-2-yl)phenyl)-6-(4-cyanophenyl)-7H-[1,2,4]triazole [3,4-b][1,3,4] thiadiazine]
IC50 ([1]; n = 4): 0.018 ± 0.001 µM | IC50 ([2]; n = 4): ≥ 1000 µM

Compound: Clc1ccc2[nH]c(-c3ccc(-c4nnc5n4N=C(c4ccc(Br)cc4)CS5)cc3)nc2c1 [Compound 5n, 3-(4-(5-chloro-1H-benzo[d]imidazol-2-yl)phenyl)-6-(4-bromophenyl)-7H-[1,2,4]triazole [3,4-b][1,3,4] thiadiazine]
IC50 ([1]; n = 4): 0.264 ± 0.011 µM

Compound: Fc1ccc(C2=Nn3c(nnc3-c3ccc(-c4nc5cc(Cl)ccc5[nH]4)cc3)SC2)c(F)c1 [Compound 5o, 3-(4-(5-chloro-1H-benzo[d]imidazol-2-yl)phenyl)-6-(2,4-difluorohenyl)-7H-[1,2,4]triazole [3,4-b][1,3,4] thiadiazine]
IC50 ([1]; n = 4): 0.373 ± 0.011 µM

Compound: Clc1ccc(C2=Nn3c(nnc3-c3ccc(-c4nc5cc(Cl)ccc5[nH]4)cc3)SC2)c(Cl)c1 [Compound 5p, 3-(4-(5-chloro-1H-benzo[d]imidazol-2-yl)phenyl)-6-(2,4-dichlorophenyl)-7H-[1,2,4]triazole [3,4-b][1,3,4] thiadiazine]
IC50 ([1]; n = 4): 0.147 ± 0.001 µM
